Earlier results as cited in patent publication US9861647B2 (Prelief Inc., priority 2007, dated 2018).
Like-named read-outs stand apart in the source and are kept apart here.

Test system: ragweed sensitized Beagle dogs
Conditions: Rudolph et al., 2003, cited from earlier work

## CN(C)CCC(c1ccc(Cl)cc1)c1ccccn1 (centres unmarked) [chlorpheniramine]
Chlorpheniramine 10 mg/kg
  RW-induced nasal congestion: can prevent the development of RW-induced nasal congestion

## CN[C@@H](C)[C@@H](O)c1ccccc1 [pseudoephedrine]
Pseudoephedrine 3 mg/kg
  RW-induced nasal congestion: can prevent the development of RW-induced nasal congestion
